Values quoted from earlier work as cited in patent US20250073171A1, “DRUG DELIVERY SYSTEM FOR THE TREATMENT OF FEMALE SEXUAL INTEREST AND AROUSAL DISORDER” (Freya Pharma Solutions Holding B.V., priority 2023, published 2025).

Columns and labels:
albumin = albumin (Homo sapiens, UniProt P02768); conditions: bloodstream
SHBG = molecular target: T1, SHBG (Homo sapiens, UniProt P04278); conditions: bloodstream
T1 sequence (P04278 30-402): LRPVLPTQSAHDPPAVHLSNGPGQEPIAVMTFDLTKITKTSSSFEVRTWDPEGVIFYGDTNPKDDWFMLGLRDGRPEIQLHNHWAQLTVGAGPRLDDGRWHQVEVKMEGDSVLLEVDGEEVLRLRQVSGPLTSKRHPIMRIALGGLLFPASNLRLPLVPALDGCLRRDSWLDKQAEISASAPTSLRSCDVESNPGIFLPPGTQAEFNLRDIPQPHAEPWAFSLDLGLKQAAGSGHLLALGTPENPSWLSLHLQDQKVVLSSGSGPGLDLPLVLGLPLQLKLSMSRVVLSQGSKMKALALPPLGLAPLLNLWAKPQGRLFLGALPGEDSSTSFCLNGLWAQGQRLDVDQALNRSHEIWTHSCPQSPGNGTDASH

Chain of albumin (P02768 25-609): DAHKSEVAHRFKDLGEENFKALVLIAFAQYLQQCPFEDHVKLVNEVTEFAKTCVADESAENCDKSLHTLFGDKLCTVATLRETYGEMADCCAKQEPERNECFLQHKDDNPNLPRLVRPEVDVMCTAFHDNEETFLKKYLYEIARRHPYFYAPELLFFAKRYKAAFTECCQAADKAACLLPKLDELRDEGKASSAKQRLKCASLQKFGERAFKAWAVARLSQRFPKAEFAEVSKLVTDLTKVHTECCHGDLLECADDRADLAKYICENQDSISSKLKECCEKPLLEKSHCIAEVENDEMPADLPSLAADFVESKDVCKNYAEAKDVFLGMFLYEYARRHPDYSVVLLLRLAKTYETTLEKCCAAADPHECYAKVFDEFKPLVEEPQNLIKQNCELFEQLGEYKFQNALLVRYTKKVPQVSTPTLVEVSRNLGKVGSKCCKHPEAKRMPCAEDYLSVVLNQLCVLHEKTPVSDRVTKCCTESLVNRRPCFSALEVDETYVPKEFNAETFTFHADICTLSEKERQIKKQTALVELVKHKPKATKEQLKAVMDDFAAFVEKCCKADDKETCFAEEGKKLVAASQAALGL

SMILES: C[C@]12CC[C@H]3[C@@H](CCC4=CC(=O)CC[C@@]43C)[C@@H]1CC[C@@H]2O [testosterone, 17-[beta]-hydroxyandrost-4-en-3-one]
- albumin-bound testosterone, percentage of total testosterone (albumin): 30-40%
- SHBG-bound testosterone, percentage of total testosterone (SHBG): 60-70%
- free testosterone, percentage of total testosterone (bloodstream): 1-2%
- T1/2 of free testosterone (metabolism of free testosterone): approximately 10 min
